Measurements: PubChem BioAssay AID2060601 (Molecular Pharmacology Branch, DTP, NCI, 2025)

Test system: 874868-142-R-J2-PDC complex spheroids, growth % test/control
Assay: Anticancer human tumor 874868-142-R-J2-PDC patient-derived head and neck squamous carcinoma cell line growth inhibition [CLK]
Settings: for IC50: curve of first compound; for viability, T/C: stronger effect = lower value; active = viability on the fitted dose curve at most 10% of control; inactive = the rest
How it was run: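 Multi-cell-type spheroids combined patient-derived tumor cells with HUVEC endothelial cells and human mesenchymal stem cells. Paired agents were dosed in half-log steps down from about clinical Cmax, or from 10 microM where Cmax was unknown.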
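Note: spheroids exposed to the compounds for 7 days.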
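Throughout, for viability, T/C: 100% = DMSO vehicle control viability.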

Cn1ncnc1[C@H]1c2n[nH]c(=O)c3cc(F)cc(c23)N[C@@H]1c1ccc(F)cc1 + CN1CCN(c2cc(C(=O)Nc3cc4cc(-c5cnn(C)c5)ccc4cn3)ccn2)CC1
< 0.316 nM: IC50 (second compound 0.316 µM) | IC50 (second compound 1 µM) | IC50 (second compound 3.16 µM) | IC50 (second compound 10 µM)
active: viability, T/C (second compound 1 µM, first compound 0.000316 µM) 0.34% | viability, T/C (second compound 1 µM, first compound 0.001 µM) 0.36% | viability, T/C (second compound 1 µM, first compound 0.00316 µM) 0.3% | viability, T/C (second compound 1 µM, first compound 0.01 µM) 0.19% | viability, T/C (second compound 1 µM, first compound 0.0316 µM) 0.26% | viability, T/C (second compound 1 µM, first compound 0.1 µM) 0.38% | viability, T/C (second compound 3.16 µM, first compound 0.000316 µM) 0.15% | viability, T/C (second compound 3.16 µM, first compound 0.001 µM) 0.17% | viability, T/C (second compound 3.16 µM, first compound 0.00316 µM) 0.15% | viability, T/C (second compound 3.16 µM, first compound 0.01 µM) 0.18% | viability, T/C (second compound 3.16 µM, first compound 0.0316 µM) 0.12% | viability, T/C (second compound 3.16 µM, first compound 0.1 µM) 0.29% | viability, T/C (second compound 10 µM, first compound 0.000316 µM) 0.11% | viability, T/C (second compound 10 µM, first compound 0.001 µM) 0.2% | viability, T/C (second compound 10 µM, first compound 0.00316 µM) 0.16% | viability, T/C (second compound 10 µM, first compound 0.01 µM) 0.18% | viability, T/C (second compound 10 µM, first compound 0.0316 µM) 0.2% | viability, T/C (second compound 10 µM, first compound 0.1 µM) 0.2%
91.4 nM: IC50 (second compound 0.1 µM)
inactive: viability, T/C (second compound 0.0316 µM, first compound 0.000316 µM) 99.4% | viability, T/C (second compound 0.0316 µM, first compound 0.001 µM) 83.8% | viability, T/C (second compound 0.0316 µM, first compound 0.00316 µM) 80% | viability, T/C (second compound 0.0316 µM, first compound 0.01 µM) 89.2% | viability, T/C (second compound 0.0316 µM, first compound 0.0316 µM) 62.2% | viability, T/C (second compound 0.0316 µM, first compound 0.1 µM) 68.2% | viability, T/C (second compound 0.1 µM, first compound 0.000316 µM) 83.9% | viability, T/C (second compound 0.1 µM, first compound 0.001 µM) 70.3% | viability, T/C (second compound 0.1 µM, first compound 0.00316 µM) 69.8% | viability, T/C (second compound 0.1 µM, first compound 0.01 µM) 66.6% | viability, T/C (second compound 0.1 µM, first compound 0.0316 µM) 43.8% | viability, T/C (second compound 0.1 µM, first compound 0.1 µM) 53.8% | viability, T/C (second compound 0.316 µM, first compound 0.000316 µM) 17.1% | viability, T/C (second compound 0.316 µM, first compound 0.001 µM) 17.7% | viability, T/C (second compound 0.316 µM, first compound 0.00316 µM) 16.2% | viability, T/C (second compound 0.316 µM, first compound 0.01 µM) 11.9% | viability, T/C (second compound 0.316 µM, first compound 0.0316 µM) 18.8% | viability, T/C (second compound 0.316 µM, first compound 0.1 µM) 15.2%
> 100 nM: IC50 (second compound 0.0316 µM)
